The record followed here is patent US7888359B2, “Cyclohexyl or piperidinyl carboxamide antibiotic derivatives” (Actelion Pharmaceutical Ltd., priority 2006, dated 2011).

Holding throughout (type): cell-based
Experiment [1] deals with S. aureus A798. Nature of the experiment: MIC by microdilution (NCCLS) against S. aureus A798. The conditions noted are these: pH 7.2-7.3; for MIC: Staphylococcus aureus, A798, cation-adjusted Mueller-Hinton Broth. The method, then:
(§1) These assays have been performed following the description given in “Methods for dilution Antimicrobial Susceptibility Tests for Bacteria that Grow Aerobically, 4th ed.; Approved standard: NCCLS Document M7-A4; National Committee for Clinical Laboratory Standards Villanova, Pa., USA, 1997”. Minimal inhibitory concentrations (MICs; mg/L) were determined in cation-adjusted Mueller-Hinton Broth (BBL) by a microdilution method following NCCLS guidelines (National Committee for Clinical Laboratory Standards. Methods for Dilution Antimicrobial Susceptibility). The pH of the test medium was 7.2-7.3.

Experiment [2] has as its system S. Pneumoniae 49619. Nature of the experiment: MIC by microdilution (NCCLS) against S. Pneumoniae 49619. The conditions noted are these: cation-adjusted Mueller-Hinton Broth, pH 7.2-7.3; for MIC: Streptococcus pneumoniae. The method, then: as §1
Experiment [3] relates to M. catarrhalis A894. Nature of the experiment: MIC by microdilution (NCCLS) against M. catarrhalis A894. The conditions noted are these: pH 7.2-7.3; for MIC: Moraxella catarrhalis, A894, cation-adjusted Mueller-Hinton Broth. The method, then: as §1
Setting [4] is: cation-adjusted Mueller-Hinton Broth.

Values after ≈ are worked out from the molar mass of the structure shown.

As for `COc1cnc2cccc(CCC3(O)CCC(C(=O)N/C=C/c4cc(F)ccc4F)CC3)c2c1` (stereo not drawn) [Example 26, trans-4-hydroxy-4-[2-(3-methoxy-quinolin-5-yl)-ethyl]-cyclohexanecarboxylic acid [2-(2,5-difluoro-phenyl)-vinyl]-amide], in experiment [1] (setting [4]), the “MIC S. aureus A798” value is less than 0.03 mg/L. In experiment [2], the “MIC S. Pneumoniae 49619” value was determined as 0.125 mg/L (≈ 0.268 µM). Moreover, the “MIC M. catarrhalis A894” value in experiment [3] (setting [4]) is on record as less than 0.03 mg/L.
Turning to `COc1ccc2nccc(OC[C@H]3CC[C@H](C(=O)Nc4ccc5c(c4)OCCO5)CC3)c2c1` [Example 1, trans-4-(6-methoxy-quinolin-4-yloxymethyl)-cyclohexanecarboxylic acid (2,3-dihydro-benzo[1,4]dioxin-6-yl)-amide], the MIC in experiment [1] stood at 0.06 µg/mL (≈ 0.134 µM); in experiment [2], 0.06 µg/mL (≈ 0.134 µM); in experiment [3], 0.5 µg/mL (≈ 1.11 µM).
Regarding `COc1ccc2nccc(CCC3(O)CCC(C(=O)N(C)c4ccc5c(c4)OCCO5)CC3)c2n1` (stereo not drawn) [Example 39, 4-hydroxy-4-[2-(6-methoxy-[1,5]naphthyridin-4-yl)-ethyl]-cyclohexanecarboxylic acid (2,3-dihydro-benzo[1,4]dioxin-6-yl)-methyl-amide], the MIC in experiment [1] came out at 1 µg/mL (≈ 2.09 µM); in experiment [2] it was 8 µg/mL (≈ 16.8 µM); in experiment [3], 8 µg/mL (≈ 16.8 µM).
With `COc1ccc2nccc(C(O)CN3CCC(C(=O)Nc4ccc5c(c4)NC(=O)CS5)CC3)c2c1` (racemic) [Example 12, (2RS)-1-[2-hydroxy-2-(6-methoxy-quinolin-4-yl)-ethyl]-piperidine-4-carboxylic acid (3-oxo-3,4-dihydro-2H-benzo[1,4]thiazin-6-yl)-amide], the MIC was found to be 1 µg/mL (≈ 2.03 µM) in experiment [1], 2 µg/mL (≈ 4.06 µM) in experiment [2] and 0.25 µg/mL (≈ 0.508 µM) in experiment [3].
